Columns and labels:
[1] = induced by scopolamine; non-patent documents 1, 2; cited from earlier work
synapse transmission = conditions: patent document 1; cited from earlier work
[2] = system: 3T3L1-GLUT4myc adipocytes; experiment: Analysis of GLUT4 trafficking (cellular membrane transport of GLUT4); type: cell-based; conditions: 1 μM, 20 min, FIG. 7
Experimental: 3T3L1-GLUT4myc fibroblast strain expressing GLUT4myc was used. The cells are constructed by inserting human c-MYC epitope (14 amino acids) into the first ectodomain. The cells were cultured in Dulbecco's Modified Eagles Medium (DMEM) added with 10% (v/v) bovine serum, penicillin (final concentration, 100 U/ml) and streptomycin (final concentration, 0.1 mg/ml) in a humid environment under 5% CO2 and 95% air at 37° C. When the cells reached confluence (day 0), the medium was exchanged with DMEM added with 10% (v/v) fetal bovine serum (FBS), 1 μM dexamethasone, 0.5 mM 3-isobutyl-methyl-xanthine and 0.1 mg/ml insulin to allow for differentiation from fibroblast into adipocyte. The medium was exchanged with DMEM added with 10% (v/v) FBS on day 3, day 7 and day 11. On day 14, the cells were used for the experiment.
3T3L1-GLUT4myc adipocytes were incubated in Krebs-Ringer-HEPES buffer [136 mM NaCl, 4.7 mM KCl, 1.25 mM CaCl2, 1.25 mM MgSO4 and 20 mM HEPES, pH 7.5] containing 0.2% (w/v) bovine serum albumin and added with 10 mM glucose at 37° C. for 1 hr. The cells were incubated in the presence or absence of insulin, phospholipid or a derivative thereof for 20 min. Then, the cells were homogenized by sonication in an ice-cooled mitochondria buffer containing 1% (v/v) protease inhibitor cocktail [210 mM mannitol, 70 mM sucrose, and 1 mM ethylenediaminetetraacetic acid (EDTA), 10 mM HEPES, pH 7.5]. Sequentially, the homogenate was centrifuged at 4° C. for 5 min at 3,000 rpm. The supernatant was further centrifuged at 4° C. for 15 min at 11,000 rpm. […] The protein concentration of each fraction was measured using BCA protein assay kit (Thermo Fisher Scientific, Waltham, Mass., USA). […] The immunoreactivity was detected using ECL kit (Invitrogen), and visualized using a chemical luminescence detection system (chemiluminescence detection system; GE Healthcare, Piscataway, N.J., USA). The signal density was measured using an image analysis software (Image Gauge software; GE Healthcare).

[3] = patent document 2; cited from earlier work

Q: With `CCCCC/C=C\C/C=C\CCCCCCCC(=O)OC[C@H](COP(=O)([O-])OCC[N+](C)(C)C)OC(=O)CCCCCCC/C=C\C/C=C\CCCCC` [1,2-dilinoleoyl-sn-glycero-3-phosphocholine] as the compound, how does the “Improvement of spatial learning disorder and memory disorder” value [1] read?
A: improve spatial learning disorder and memory disorder induced by scopolamine

Q: With `CCCCCCCC/C=C\CCCCCCCC(=O)O[C@H](COC(=O)CCCCCCCCCCCCCCC)COP(=O)([O-])OCC[N+](C)(C)C` [1-palmitoyl-2-oleoyl-sn-glycero-3-phosphocholine] as the compound, how does the “Improvement of spatial learning disorder and memory disorder” value [1] read?
A: improve spatial learning disorder and memory disorder induced by scopolamine

Q: For `CCCCCC1CC1CC1CC1CCCCCCCC(=O)O` (centres unmarked) [DCP-LA, 8-[2-(2-Pentyl-cyclopropylmethyl)-cyclopropyl]-octanoic acid], which “Enhancement of synapse transmission (LTP-like)” value (synapse transmission) is on record?
A: can maintain stable LTP (long-teLm potentiation)-like enhancement of synapse transmission

Q: For “insulin: insulin, comparison treatment in the GLUT4 trafficking analysis [reference compound]”, which “Promotion of cellular membrane transport of GLUT4” value [2] is on record?
A: an action to promote cellular membrane transport of GLUT4

Q: Which “Cell death induction suppressive activity / endoplasmic reticulum stress suppressive activity” value [3] does the source give for `CCCCC/C=C/C/C=C/CCCCCCCC(=O)OCC(COP(=O)(O)OCCN)OC(=O)CCCCCCC/C=C/C/C=C/CCCCC` (centres unmarked) [dilinoleoyl•phosphatidylethanolamine] here?
A: cell death induction suppressive activity, particularly, endoplasmic reticulum stress suppressive activity
